In US6617360B1, “Medical treatment” (Knoll Aktiengesellschaft, priority 1996, dated 2003):

Legend:
[1] = test system: L6 muscle cells; assay: [3H]-2-deoxyglucose (2DG) uptake in L6 muscle cells with and without added insulin (Study 1); assay type: cell-based
Description: L6 Muscle cells were obtained from the European Culture Collection (Porton Down) and were used at passages 7-11. Cells were maintained in standard tissue culture medium DMEM, and glucose uptake was assessed using [^3H]-2-deoxyglucose (2DG) with and without the presence of added insulin (10^−8 M) as has been previously described (Walker P S et al, Glucose transport activity in L6 muscle cells is regulated by the coordinate control of subcellular glucose transporter distribution, biosynthesis, and mRNA transcription, JBC, 1990;265(3), 1516-1523, and Kilp A et al, Stimulation of hexose transport by metformin in L6 muscle cells in culture, Endocrinology, 1992;130(5), 2535-2544).
Uptake of 2DG was expressed as the percentage change compared with control. Values are presented as mean±SEM of sets of 4 wells per experiment. Differences between sets of wells were evaluated by Student's t test, probability values p<0.05 were considered to be significant. […] In the presence of added insulin (10^−8 M), significant increases in 2DG uptake were observed following 24 hour incubation with the compound of formula I in which R1 and R2 are both methyl (sibutramine hydrochloride monohydrate) at 10^−8 M (from 149.9±4.3 to165.3±2.6), the compound of formula I in which R1 is methyl and R2 is H at 10^−7 M (from 147.3±3.0 to 160.7±4.5), and the compound of formula I in which R1 and R2 are both H, at 10^−7 M and 10^−6 M (from 149.1±3.9 to 161.8±3.3 and 165.2±3.6 respectively).

[2] = test system: ob/ob mice (Aston Strain); assay: Chronic administration (10 mg/kg po) and withdrawal in obese ob/ob mice: plasma glucose, plasma insulin, body weight, food intake (Study 2); assay type: in vivo
Description: Studies were performed in obese ob/ob mice (Aston Strain) which are a model of severe insulin resistance and are also hyperglycaemic. The derivation and characteristics of this animal model have been previously described (Flatt P R, Bailey C J, Development of glucose intolerance and impaired plasma insulin response to glucose in obese hyperglycaemic (ob/ob) mice, Horm Metab Res 1981;13:556-560, and Bailey C J et al, Influence of genetic background and age on the expression of the obese hyperglycaemic syndrome in Aston ob/ob mice, Int J Obesity, 1982;6:11-21).
The ob/ob mice were individually housed in polypropylene cages at a temperature of 21±1° C. and 55% humidity. The mice had free access to a standard rat and mouse pelleted diet (Compound Rat and Mouse Diet, Special Diet Services, Witham, Essex) and tap water at all times. Animals were maintained on a reverse phase light-dark cycle. Lights were off between 09.00 h and 17.00 h in the acute experiment and between 10.00 h and 18.00 h in the chronic experiment. During this time the laboratory was illuminated by red lamps. Animals were acclimatised to these conditions for at least two weeks before experimentation.
All animals were given deionised water (at the start of the dark period) for 7 days. Body weight and food intake were measured daily. Blood samples were taken immediately before daily administration of vehicle (deionised water 10 ml/kg po) or compound of formula I in which R1 and R2 are both methyl (sibutramine hydrochloride monohydrate; 10 mg/kg po) on day 1 (baseline) and after 14 and 28 days of treatment (on day 15 and day 29 respectively). Blood samples were also taken 14 days following withdrawal of the sibutramine hydrochloride monohydrate (on day 43 of the study). Plasma glucose was determined by a glucose oxidase procedure (Analox GM7) and plasma insulin determined by radioimmunoassay (Amerlex, Amersham).

[3] = test system: ob/ob mice (Aston Strain); assay: 6 weeks of treatment (5 mg/kg/day po) and 6 weeks of withdrawal in young ob/ob mice: body weight, plasma insulin, ip glucose tolerance test, insulin hypoglycaemia test (Study 3); assay type: in vivo
Description: Young ob/ob mice (Aston Strain) were randomised into 3 groups as follows: control, receiving placebo treatment (phosphate buffered saline 2.5 ml/kg/day po); sibutramine hydrochloride monohydrate-treated (5 mg/kg/day po); and pair-fed control, supplied with the same daily food intake as that consumed by the sibutramine hydrochloride monohydrate-treated group on the previous day. There was a 1 week run-in period followed by 6 weeks of treatment. Body weight and food intake were monitored every 1 to 2 days, and blood samples for plasma glucose and insulin were taken from the tail vein at weekly intervals in the non-fasted state at 11 a.m. An ip glucose tolerance test (D-glucose, 2 g/kg in 40% w/v solution in distilled water) and an insulin hypoglycaemia test (Actrapid, Novo-Nordisk, 2.5 u/kg ip) were conducted after 5 weeks of treatment. Food was withheld only for the duration of these tests (approx. 4 hours). The basal blood samples and the test procedures were undertaken 18 hours after the last treatment administration.
Treatment was stopped after 6 weeks, and the mice were monitored for the next 6 weeks. The pair-fed mice continued to be pair-fed with respect to the sibutramine hydrochloride monohydrate withdrawal group. A second insulin hypoglycaemia test was conducted 4 weeks after treatment was stopped. Plasma glucose was determined by an automated glucose oxidase procedure (Beckman) and plasma insulin determined by radioimmunnoassay (Amerlex, Amersham).

[4] = added insulin 10^−8 M, 24 hour incubation, compound 10^−7 M, insulin alone 147.3±3.0 (R1 methyl, R2 H) or 149.1±3.9 (both H), mean±SEM
[5] = compound group, day 1 of study, prior to treatment (baseline), mean ± SEM
[6] = 6 week withdrawal period after 5 mg/kg/day po, vs vehicle treated group, for almost all of the period

## CC(C)CC(N)C1(c2ccc(Cl)cc2)CCC1 (stereo not drawn) [1-[1-(4-chlorophenyl)cyclobutyl]-3-methylbutylamine]
[1]; absence of added insulin, 24 hours incubation, compound 10^−6 M, control 100±2.1, mean±SEM
  Uptake of 2DG, percentage change compared with control: 134±7.3%
[1]; absence of added insulin, 24 hours incubation, compound 10^−7 M, control 100±2.1, mean±SEM
  Uptake of 2DG, percentage change compared with control: 123.9±4.3%
[1]; absence of added insulin, 24 hours incubation, compound 10^−8 M, control 100±2.1, mean±SEM
  Uptake of 2DG, percentage change compared with control: 116.9±3.8%
[1]; added insulin 10^−8 M, 24 hour incubation, compound 10^−6 M, insulin alone 149.1±3.9, mean±SEM
  Uptake of 2DG, percentage change compared with control: 165.2±3.6%
[1]; [4]
  Uptake of 2DG, percentage change compared with control: 161.8±3.3%

## CNC(CC(C)C)C1(c2ccc(Cl)cc2)CCC1 (stereo not drawn) [N-{1-[1-(4-chlorophenyl)cyclobutyl]-3-methylbutyl}-N-methylamine]
[1]; [4]
  Uptake of 2DG, percentage change compared with control: 160.7±4.5%

## CC(C)CC(N(C)C)C1(c2ccc(Cl)cc2)CCC1.Cl.O (stereo not drawn) [sibutramine hydrochloride monohydrate, N,N-dimethyl-1-[1-(4-chlorophenyl)cyclobutyl]-3-methylbutylamine hydrochloride monohydrate]
[2]; 10 mg/kg po daily, after 14 and 28 days of treatment, significant difference from control at day 28 (P<0.01)
  Plasma glucose (in words): fell
[2]; 10 mg/kg po daily, day 15 of study (14 days of treatment), vehicle 21.7 ± 0.9, mean ± SEM
  Plasma glucose: 19.0 ± 0.6 mmol/L
[2]; 10 mg/kg po daily, day 15 of study (14 days of treatment), vehicle 49.7 ± 3.5, mean ± SEM
  Plasma insulin: 45.1 ± 2.6 ng/mL
[2]; 10 mg/kg po daily, day 29 of study (28 days of treatment), vehicle 26.0 ± 1.4, **P < 0.01 vs vehicle, mean ± SEM
  Plasma glucose: 15.8 ± 0.7** mmol/l
[2]; 10 mg/kg po daily, day 29 of study (28 days of treatment), vehicle 46.2 ± 4.5, mean ± SEM
  Plasma insulin: 35.1 ± 2.7 ng/mL
[2]; 10 mg/kg po daily, tended to fall on treatment and increased on withdrawal
  Plasma insulin (in words): No significant changes
[2]; 10 mg/kg po daily, vs vehicle
  Body weight (in words): No significant changes
  Food intake (in words): No significant changes
[2]; after 14 days of drug withdrawal, rose to control values
  Plasma glucose (in words): rose significantly
[2]; [5]
  Plasma glucose: 24.3 ± 0.6 mmol/L
  Plasma insulin: 92.0 ± 4.5 ng/mL
[2]; day 43 of study, 14 days after drug withdrawal, vehicle 22.9 ± 1.7, mean ± SEM
  Plasma glucose: 23.6 ± 1.2 mmol/L
[2]; day 43 of study, 14 days after drug withdrawal, vehicle 40.6 ± 8.6, mean ± SEM
  Plasma insulin: 77.1 ± 11.3 ng/mL
[3]; 5 mg/kg/day po, after 5 weeks of treatment, D-glucose 2 g/kg ip, vs vehicle, P<0.05, FIG. 1
  Plasma insulin in ip glucose tolerance test (in words): significant reductions
[3]; 5 mg/kg/day po, after 5 weeks of treatment, D-glucose 2 g/kg ip, vs vehicle, P<0.05, FIG. 2
  Plasma glucose in ip glucose tolerance test (in words): significant reductions
[3]; 5 mg/kg/day po, at 5 weeks, insulin 2.5 u/kg ip, vs vehicle, P<0.05, FIG. 3
  Insulin hypoglycaemia test (in words): Significant improvements
[3]; 5 mg/kg/day po, during 6 weeks of treatment, compared to vehicle
  Body weight (in words): significant reduction
[3]; 5 mg/kg/day po, during 6 weeks of treatment, non-fasted, compared to vehicle
  Plasma insulin (in words): significant reduction
[3]; [6]
  Body weight (in words): remained significantly lower
  Plasma insulin (in words): remained significantly lower
[1]; added insulin 10^−8 M, 24 hour incubation, compound 10^−8 M, insulin alone 149.9±4.3, mean±SEM
  Uptake of 2DG, percentage change compared with control: 165.3±2.6%
